# Measurements taken from paper PMC9049607 (Microbial Biotechnology, 2021).
# Read-outs that look alike come from different tables or passages of the source.
# Assays:
# AdhE = AdhE (Escherichia coli, UniProt P0A9Q7); assay: NADH consumption at […] nm, specific activity; format: biochemical; settings: 5 mM substrate, 0.2 mM NADH, 100 mM PBS pH 8.0, 30°C
# OYE2p = settings: read-out: Enzyme / Y84V, 100 mM PBS pH 8.0, 30°C
# YahK = target: T1, YahK (Escherichia coli, UniProt P75691); assay: NADH consumption at […] nm, specific activity; format: biochemical; settings: 5 mM substrate, 0.2 mM NADH, 100 mM PBS pH 8.0, 30°C
# T1 sequence (P75691 1-349): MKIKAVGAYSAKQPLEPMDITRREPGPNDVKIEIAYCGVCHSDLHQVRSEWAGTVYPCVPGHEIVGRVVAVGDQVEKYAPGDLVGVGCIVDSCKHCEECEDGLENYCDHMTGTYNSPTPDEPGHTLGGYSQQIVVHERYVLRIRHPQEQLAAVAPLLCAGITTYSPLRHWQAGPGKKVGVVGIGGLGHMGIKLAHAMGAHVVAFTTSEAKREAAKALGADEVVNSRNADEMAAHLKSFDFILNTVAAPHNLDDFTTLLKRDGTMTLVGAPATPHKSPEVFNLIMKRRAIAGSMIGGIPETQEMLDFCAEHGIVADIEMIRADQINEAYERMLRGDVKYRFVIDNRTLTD
# AdhE, sequence (P0A9Q7 2-891): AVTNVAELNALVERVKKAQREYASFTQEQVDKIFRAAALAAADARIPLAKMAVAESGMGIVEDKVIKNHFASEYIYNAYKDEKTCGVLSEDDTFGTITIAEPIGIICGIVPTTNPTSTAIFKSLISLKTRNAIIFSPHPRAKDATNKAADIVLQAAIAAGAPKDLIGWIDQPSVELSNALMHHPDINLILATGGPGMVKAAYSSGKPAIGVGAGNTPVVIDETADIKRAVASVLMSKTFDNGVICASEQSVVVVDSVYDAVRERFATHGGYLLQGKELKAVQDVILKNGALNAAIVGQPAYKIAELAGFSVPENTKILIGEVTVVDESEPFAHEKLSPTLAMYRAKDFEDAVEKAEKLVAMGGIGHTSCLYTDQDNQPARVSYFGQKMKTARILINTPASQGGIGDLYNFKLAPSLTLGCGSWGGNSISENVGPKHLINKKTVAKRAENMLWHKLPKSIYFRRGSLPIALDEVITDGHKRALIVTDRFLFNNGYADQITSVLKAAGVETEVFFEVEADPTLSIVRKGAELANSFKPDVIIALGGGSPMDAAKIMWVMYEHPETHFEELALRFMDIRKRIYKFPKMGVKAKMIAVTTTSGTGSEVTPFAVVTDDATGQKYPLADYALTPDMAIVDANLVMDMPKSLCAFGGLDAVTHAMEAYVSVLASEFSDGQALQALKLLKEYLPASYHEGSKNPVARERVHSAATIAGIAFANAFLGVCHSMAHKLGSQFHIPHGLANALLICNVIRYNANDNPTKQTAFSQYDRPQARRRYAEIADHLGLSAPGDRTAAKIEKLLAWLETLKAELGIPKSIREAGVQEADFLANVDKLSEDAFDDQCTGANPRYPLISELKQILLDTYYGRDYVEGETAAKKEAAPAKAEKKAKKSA
Structure (SMILES),"NADH consumption at 340 nm, specific activity (AdhE)",Km (OYE2p; 0.2 mM NADH) [µM],Km (OYE2p; 5 mM (E/Z)-citral) [µM],"NADH consumption at 340 nm, specific activity (YahK)"
CC(C)=CCC/C(C)=C/C=O [(E)-citral],these enzymes have catalytic activity for the tested substrates,107 ± 26,–,–
CC(C)=CCC/C(C)=C\C=O [(Z)-citral],–,326 ± 84,–,–
NC(=O)C1=CN([C@@H]2O[C@H](COP(=O)(O)OP(=O)(O)OC[C@H]3O[C@@H](n4cnc5c(N)ncnc54)[C@H](O)[C@@H]3O)[C@@H](O)[C@H]2O)C=CC1 [NADH],–,–,27 ± 8,–
CC(C)=CCCC(C)CC=O (stereo not drawn) [citronellal],approximately twice higher than that of AdhE and YahK,–,–,approximately twice higher than that of AdhE and YahK
